Assay results: US11185531B2, “Arginine methyltransferase inhibitors and uses thereof” (Epizyme, Inc., priority 2013, dated 2021)

Each molecule was assayed against T1, Human CARM1 (PRMT4) (Homo sapiens, UniProt Q86X55) (assay: CARM1 Biochemical Assay (3H-SAM Flashplate, peptide substrate)). Details: 30 min preincubation.
T1 construct: Flag-CARM1-His was eluted with 200 ug/ml FLAG peptide in buffer A; made in house; host or cells: HEK 293F cells (BacMam baculovirus, pFastBacMam)
T1 sequence (Q86X55 1-585 isoform Q86X55-1): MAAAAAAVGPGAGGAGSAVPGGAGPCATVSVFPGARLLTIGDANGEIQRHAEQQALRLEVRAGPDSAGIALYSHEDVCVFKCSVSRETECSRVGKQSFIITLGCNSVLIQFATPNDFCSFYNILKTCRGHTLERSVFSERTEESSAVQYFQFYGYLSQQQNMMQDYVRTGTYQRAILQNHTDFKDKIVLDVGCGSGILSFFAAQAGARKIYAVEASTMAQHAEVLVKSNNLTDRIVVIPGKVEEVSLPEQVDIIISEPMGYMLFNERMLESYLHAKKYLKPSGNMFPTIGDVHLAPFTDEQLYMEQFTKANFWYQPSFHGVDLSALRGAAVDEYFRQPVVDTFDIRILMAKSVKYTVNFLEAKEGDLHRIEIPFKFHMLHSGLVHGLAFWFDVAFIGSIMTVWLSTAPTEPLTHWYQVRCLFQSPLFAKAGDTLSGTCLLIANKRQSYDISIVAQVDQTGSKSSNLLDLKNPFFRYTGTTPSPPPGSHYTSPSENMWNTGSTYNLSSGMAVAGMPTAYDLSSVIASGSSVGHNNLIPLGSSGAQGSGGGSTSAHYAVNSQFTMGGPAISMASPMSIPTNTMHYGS
From the text: Peptide representative of human histone H3 residues 16-30 was synthesized with an N-terminal linker-affinity tag motif and a C-terminal amide cap by 21st Century Biochemicals. The peptide was purified by high-performance liquid chromatography (HPLC) to greater than 95% purity and confirmed by liquid chromatography mass spectrometry (LC-MS). The sequence was Biot-Ahx-[…]-amide and contained a monomethylated arginine at position 26 (SEQ ID NO:14).
Human CARM1 (PRMT4) (NM_199141.1) transcript clone was amplified from an HEK 293 cDNA library, incorporating a flanking 5′ sequence encoding a FLAG tag ([…]) (SEQ ID NO:6) fused directly to Ala 2 of CARM1 and 3′ sequence encoding a hexa His sequence ([…]) (SEQ ID NO:15) fused directly to Ser 608. The gene sequence encoding isoform1 containing a deletion of amino acids 539-561 was amplified subsequently and subcloned into pFastBacMam (Viva Biotech).
Column was washed with 500 mM NaCl in buffer A and Flag-CARM1-His was eluted with 200 ug/ml FLAG peptide in buffer A. Pooled fractions were dialyzed in 20 mM Tris, 150 mM NaCl, 5% glycerol and 1 mM DTT, pH 7.8. The purity of recovered protein was 94.
General Procedure for CARM1 Enzyme Assays on Peptide Substrates.
The assays were all performed in a buffer consisting of 20 mM Bicine (pH=7.6), 1 mM TCEP, 0.005% BSG, and 0.002% Tween 20, prepared on the day of use. Compounds in 100% DMSO (1 ul) were spotted into a polypropylene 384-well V-bottom plates (Greiner) using a Platemate Plus outfitted with a 384-channel head (Thermo Scientific). DMSO (1 ul) was added to Columns 11, 12, 23, 24, rows A-H for the maximum signal control and 1 ul of SAH, a known product and inhibitor of CARM1, was added to columns 11, 12, 23, 24, rows I-P for the minimum signal control. A cocktail (40 ul) containing the CARM1 enzyme was added by Multidrop Combi (Thermo-Fisher). The compounds were allowed to incubate with CARM1 for 30 min at room temperature, then a cocktail (10 ul) containing ^3H-SAM and peptide was added to initiate the reaction (final volume=51 ul). The final concentrations of the components were as follows: CARM1 was 0.25 nM, ^3H-SAM was 30 nM, peptide was 250 nM, SAH in the minimum signal control wells was 1 mM, and the DMSO concentration was 2%. The assays were stopped by the addition of non-radiolabeled SAM (10 ul) to a final concentration of 300 uM, which dilutes the ^3H-SAM to a level where its incorporation into the peptide substrate is no longer detectable. 50 ul of the reaction in the 384-well polypropylene plate was then transferred to a 384-well Flashplate and the biotinylated peptides were allowed to bind to the streptavidin surface for at least 1 hour before being washed once with 0.1% Tween20 in a Biotek ELx405 plate washer. The plates were then read in a PerkinElmer TopCount plate reader to measure the quantity of ^3H-labeled peptide bound to the Flashplate surface, measured as disintegrations per minute (dpm) or alternatively, referred to as counts per minute (cpm).
Where dpm=disintegrations per minute, cmpd=signal in assay well, and min and max are the respective minimum and maximum signal controls.
Where top and bottom are the normally allowed to float, but may be fixed at 100 or 0 respectively in a 3-parameter fit. The Hill Coefficient normally allowed to float but may also be fixed at 1 in a 3-parameter fit. Y is the % inhibition and X is the compound concentration.
For `CNCCN(C)Cc1c[nH]nc1C#Cc1cccc(OC)c1` [Compound 1], the IC50 was 101 to 1000 nM.
`CNCCN(C)Cc1c[nH]nc1C#Cc1ccc(C(C)(C)C)cc1` [Compound 2] showed an IC50 of 101 to 1000 nM.
With `CNCCN(C)Cc1c[nH]nc1C#Cc1ccccc1` [Compound 3] the IC50 was 1010 to 3000 nM.
In the case of `CNCCN(C)Cc1c[nH]nc1C#Cc1ccc(F)cc1` [Compound 4], the IC50 is reported as 101 to 1000 nM.
`CNCCN(C)Cc1c[nH]nc1/C=C/c1ccc(-c2ccccc2)cc1` [Compound 5] was tested, and the IC50 was 101 to 1000 nM.
`CNCCN(C)Cc1c[nH]nc1/C=C/c1ccc(C(F)(F)F)cc1` [Compound 6] gave an IC50 of 101 to 1000 nM.
`CNCCN(C)Cc1c[nH]nc1/C=C/c1ccc(OC)cc1` [Compound 7] gave an IC50 of under 100 nM.
With `Cc1ccc(/C=C/c2n[nH]cc2CN(C)CCN)cc1` [Compound 8] the IC50 was 101 to 1000 nM.
`COc1cc(/C=C/c2n[nH]cc2CN(C)CCN)cc(OC)c1` [Compound 11] was tested, and the IC50 was under 100 nM.
`CN(CCN)Cc1c[nH]nc1/C=C/c1ccc(F)cc1F` [Compound 13] gave an IC50 of 101 to 1000 nM.
Molecule `CN(CCN)Cc1c[nH]nc1/C=C/c1cc(C(F)(F)F)cc(C(F)(F)F)c1` [Compound 14] has an IC50 of 101 to 1000 nM.
Molecule `CN(CCN)Cc1c[nH]nc1/C=C/c1cc(F)cc(F)c1` [Compound 15] has an IC50 of 101 to 1000 nM.
With `CN(CCN)Cc1c[nH]nc1/C=C/c1cccc(C(F)(F)F)c1` [Compound 16] the IC50 was 101 to 1000 nM.
In the case of `COc1cccc(/C=C/c2n[nH]cc2CN(C)CCN)c1` [Compound 17], the IC50 is reported as under 100 nM.
`CN(CCN)Cc1c[nH]nc1/C=C/c1ccc(C(F)(F)F)cc1` [Compound 18] was tested, and the IC50 was under 100 nM.
`COC/C=C/c1n[nH]cc1CN(C)CCN` [Compound 19] was tested, and the IC50 was 3010 to 10000 nM.
In the case of `CN(CCN)Cc1c[nH]nc1/C=C/c1cccc(F)c1` [Compound 20], the IC50 is reported as 101 to 1000 nM.
Work on `CN(CCN)Cc1c[nH]nc1C1CCCCC1` [Compound 22] yielded an IC50 of 3010 to 10000 nM.
`CN(CCN)Cc1c[nH]nc1CCc1ccc(F)cc1` [Compound 23, N^1-((3-(4-fluorophenethyl)-1H-pyrazol-4-yl)methyl)-N^1-methylethane-1,2-diamine] gave an IC50 of 1010 to 3000 nM.
